Source: the NIST ThermoML archive (doi:10.1021/acs.jced.8b00236)
Numbers after ± are expanded uncertainties.

Assay: mn = molality of the nth substance listed, in mol/kg
Settings: 75 kPa, Liquid; for viscosity: Capillary tube (Ostwald / Ubbelohde) method; for speed of sound: Frequency=3 MHz, Single path-length method; for mass density: Vibrating tube method

NCCCCC(=O)O [5-aminovaleric acid] + O
Settings | mass density [kg/m3] | speed of sound [m/s] | viscosity [mPa·s]
288.15 K, m1 = 0.1389 | 1003.29 ± 0.3 | 1481 ± 4 | 1.215 ± 0.025
288.15 K, m1 = 0.2789 | 1007.34 ± 0.3 | 1495.3 ± 4 | 1.293 ± 0.027
288.15 K, m1 = 0.4193 | 1011.22 ± 0.3 | 1509.3 ± 4 | 1.38 ± 0.029
288.15 K, m1 = 0.5604 | 1014.96 ± 0.3 | 1523 ± 4 | 1.473 ± 0.031
288.15 K, m1 = 0.7025 | 1018.54 ± 0.3 | 1536.5 ± 4 | 1.575 ± 0.033
288.15 K, m1 = 0.8448 | 1021.98 ± 0.31 | 1549.8 ± 4 | 1.685 ± 0.035
293.15 K, m1 = 0.1389 | 1002.34 ± 0.3 | 1496.8 ± 4 | 1.073 ± 0.022
293.15 K, m1 = 0.2789 | 1006.33 ± 0.3 | 1510.7 ± 4 | 1.135 ± 0.024
293.15 K, m1 = 0.4193 | 1010.16 ± 0.3 | 1524.2 ± 4 | 1.208 ± 0.025
293.15 K, m1 = 0.5604 | 1013.85 ± 0.3 | 1537.5 ± 4 | 1.289 ± 0.027
293.15 K, m1 = 0.7025 | 1017.4 ± 0.3 | 1550.4 ± 4 | 1.376 ± 0.029
293.15 K, m1 = 0.8448 | 1020.81 ± 0.31 | 1562.9 ± 4 | 1.477 ± 0.031
298.15 K, m1 = 0.1389 | 1001.15 ± 0.3 | 1510.3 ± 4 | 0.946 ± 0.02
298.15 K, m1 = 0.2789 | 1005.16 ± 0.3 | 1523.7 ± 4 | 1.003 ± 0.021
298.15 K, m1 = 0.4193 | 1009.06 ± 0.3 | 1536.7 ± 4 | 1.063 ± 0.022
298.15 K, m1 = 0.5604 | 1012.86 ± 0.3 | 1549.3 ± 4 | 1.143 ± 0.024
298.15 K, m1 = 0.7025 | 1016.56 ± 0.3 | 1561.6 ± 4 | 1.215 ± 0.025
298.15 K, m1 = 0.8448 | 1020.15 ± 0.31 | 1573.5 ± 4 | 1.301 ± 0.027
303.15 K, m1 = 0.1389 | 999.722 ± 0.3 | 1522.1 ± 4 | 0.853 ± 0.018
303.15 K, m1 = 0.2789 | 1003.72 ± 0.3 | 1534.9 ± 4 | 0.893 ± 0.019
303.15 K, m1 = 0.4193 | 1007.61 ± 0.3 | 1547.4 ± 4 | 0.95 ± 0.02
303.15 K, m1 = 0.5604 | 1011.41 ± 0.3 | 1559.5 ± 4 | 1.013 ± 0.021
303.15 K, m1 = 0.7025 | 1015.13 ± 0.3 | 1571.3 ± 4 | 1.077 ± 0.022
303.15 K, m1 = 0.8448 | 1018.76 ± 0.31 | 1582.7 ± 4 | 1.158 ± 0.024
308.15 K, m1 = 0.1389 | 998.079 ± 0.3 | 1532.3 ± 4 | 0.762 ± 0.016
308.15 K, m1 = 0.2789 | 1002.05 ± 0.3 | 1544.6 ± 4 | 0.8 ± 0.017
308.15 K, m1 = 0.4193 | 1005.91 ± 0.3 | 1556.5 ± 4 | 0.848 ± 0.018
308.15 K, m1 = 0.5604 | 1009.68 ± 0.3 | 1568.2 ± 4 | 0.9 ± 0.019
308.15 K, m1 = 0.7025 | 1013.37 ± 0.3 | 1579.4 ± 4 | 0.957 ± 0.02
308.15 K, m1 = 0.8448 | 1016.96 ± 0.31 | 1590.2 ± 4 | 1.019 ± 0.021

NCCC(=O)O [3-aminopropanoic acid] + O
Settings | mass density [kg/m3] | speed of sound [m/s] | viscosity [mPa·s]
288.15 K, m1 = 0.1393 | 1003.45 ± 0.3 | 1475.7 ± 4 | 1.179 ± 0.024
288.15 K, m1 = 0.2789 | 1007.7 ± 0.3 | 1484.8 ± 4 | 1.214 ± 0.025
288.15 K, m1 = 0.4194 | 1011.88 ± 0.3 | 1493.8 ± 4 | 1.252 ± 0.026
288.15 K, m1 = 0.5603 | 1015.98 ± 0.3 | 1502.7 ± 4 | 1.291 ± 0.027
288.15 K, m1 = 0.7021 | 1020 ± 0.3 | 1511.6 ± 4 | 1.332 ± 0.028
288.15 K, m1 = 0.8451 | 1023.96 ± 0.3 | 1520.4 ± 4 | 1.372 ± 0.028
288.15 K, m1 = 0.9881 | 1027.81 ± 0.3 | 1529 ± 4 | 1.414 ± 0.029
288.15 K, m1 = 1.132 | 1031.61 ± 0.3 | 1537.5 ± 4 | 1.46 ± 0.03
293.15 K, m1 = 0.1393 | 1002.51 ± 0.3 | 1491.8 ± 4 | 1.033 ± 0.022
293.15 K, m1 = 0.2789 | 1006.72 ± 0.3 | 1500.8 ± 4 | 1.065 ± 0.022
293.15 K, m1 = 0.4194 | 1010.86 ± 0.3 | 1509.7 ± 4 | 1.099 ± 0.023
293.15 K, m1 = 0.5603 | 1014.91 ± 0.3 | 1518.5 ± 4 | 1.134 ± 0.024
293.15 K, m1 = 0.7021 | 1018.9 ± 0.3 | 1527.2 ± 4 | 1.174 ± 0.024
293.15 K, m1 = 0.8451 | 1022.82 ± 0.3 | 1535.9 ± 4 | 1.216 ± 0.025
293.15 K, m1 = 0.9881 | 1026.64 ± 0.3 | 1544.4 ± 4 | 1.259 ± 0.026
293.15 K, m1 = 1.132 | 1030.4 ± 0.3 | 1552.7 ± 4 | 1.307 ± 0.027
298.15 K, m1 = 0.1393 | 1001.3 ± 0.3 | 1505.5 ± 4 | 0.9201 ± 0.019
298.15 K, m1 = 0.2789 | 1005.48 ± 0.3 | 1514.3 ± 4 | 0.9466 ± 0.02
298.15 K, m1 = 0.4194 | 1009.59 ± 0.3 | 1522.9 ± 4 | 0.9744 ± 0.02
298.15 K, m1 = 0.5603 | 1013.63 ± 0.3 | 1531.4 ± 4 | 0.9995 ± 0.021
298.15 K, m1 = 0.7021 | 1017.6 ± 0.3 | 1539.9 ± 4 | 1.034 ± 0.022
298.15 K, m1 = 0.8451 | 1021.51 ± 0.3 | 1548.2 ± 4 | 1.062 ± 0.022
298.15 K, m1 = 0.9881 | 1025.34 ± 0.3 | 1556.4 ± 4 | 1.1 ± 0.023
298.15 K, m1 = 1.132 | 1029.1 ± 0.3 | 1564.5 ± 4 | 1.146 ± 0.024
303.15 K, m1 = 0.1393 | 999.877 ± 0.3 | 1517.7 ± 4 | 0.824 ± 0.017
303.15 K, m1 = 0.2789 | 1004.02 ± 0.3 | 1526.1 ± 4 | 0.8427 ± 0.018
303.15 K, m1 = 0.4194 | 1008.09 ± 0.3 | 1534.5 ± 4 | 0.8667 ± 0.018
303.15 K, m1 = 0.5603 | 1012.08 ± 0.3 | 1542.8 ± 4 | 0.8942 ± 0.019
303.15 K, m1 = 0.7021 | 1016 ± 0.3 | 1550.9 ± 4 | 0.9256 ± 0.019
303.15 K, m1 = 0.8451 | 1019.86 ± 0.3 | 1559 ± 4 | 0.959 ± 0.02
303.15 K, m1 = 0.9881 | 1023.63 ± 0.3 | 1566.9 ± 4 | 1.001 ± 0.021
303.15 K, m1 = 1.132 | 1027.33 ± 0.3 | 1574.7 ± 4 | 1.042 ± 0.022
308.15 K, m1 = 0.1393 | 998.23 ± 0.3 | 1527.9 ± 4 | 0.733 ± 0.015
308.15 K, m1 = 0.2789 | 1002.34 ± 0.3 | 1536 ± 4 | 0.7526 ± 0.016
308.15 K, m1 = 0.4194 | 1006.39 ± 0.3 | 1544 ± 4 | 0.7692 ± 0.016
308.15 K, m1 = 0.5603 | 1010.35 ± 0.3 | 1551.9 ± 4 | 0.7923 ± 0.017
308.15 K, m1 = 0.7021 | 1014.25 ± 0.3 | 1559.7 ± 4 | 0.8219 ± 0.017
308.15 K, m1 = 0.8451 | 1018.1 ± 0.3 | 1567.4 ± 4 | 0.8509 ± 0.018
308.15 K, m1 = 0.9881 | 1021.85 ± 0.3 | 1574.9 ± 4 | 0.8756 ± 0.018
308.15 K, m1 = 1.132 | 1025.53 ± 0.3 | 1582.3 ± 4 | 0.9126 ± 0.019
